This note sets out measurements from patent publication US20230043678A1, “USE OF 5-METHYLTETRAHYDROFOLATE” (priority 2019, published 2023).

Read-outs that look alike come from different tables or passages of the source.

One series deals with fetal rat heart. The series is described as follows: Effects of homocysteine on fetal rats, heart slices (Example 7). Format: in vivo, SD rats. The procedure:
In order to investigate an effect of homocysteine on the fetal heart, SD rats were selected, male and female rats were mated in a cage at a ratio of 1:1 overnight, a vaginal plug was checked the next morning, a day when the vaginal plug was found was regarded as day 0 of pregnancy, and pregnant mice were fed alone. A 1% homocysteine (HCY) solution was used, an injection volume was calculated according to an injection volume of 1 ml/100 g, a dose was (100 mg/kg/d), on the seventh day of pregnancy, the pregnant mice were intraperitoneally injected once a day until the 17th day of pregnancy and injected once on the 19th day of pregnancy, no fluid was withdrawn during each injection, the pregnant mice were subjected to chloral hydrate anesthesia on the 20th day of pregnancy, and a fetus was obtained by cesarean section. High-dose HCY model pregnant mice were investigated by the same method as above, the dose was 200 mg/kg/d and the other conditions were the same. Fetal rats were dissected, the heart was taken and sliced for observation, and the results were as follows.

In series [1] the test system is zebrafish embryos. As to the kind of experiment: Teratogenic effect of folic acid on zebrafish embryos (Example 3).
Experimental: (§1) Transgenic zebrafish (fli-1:EGFP) were from the Model Animal Research Center of Nanjing University. Adult zebrafish aged less than 1 were used for experiment and fed at a water pH value of 7±0.2, a temperature around 28° C. and a ratio of illumination to darkness of 14 h:10 h, and with Artemia salina eggs twice a day. Three zebrafish, one female, two males, were placed in a spawning box the night before and eggs were collected the next morning. Fish eggs were placed in an embryo culture medium (prepared with 0.2 g/L of sea salt) and cultured at 28° C. […] Dead embryos were cleaned up in time. A phenotype of malformation was observed, the number of all abnormal zebrafish where the malformation was present was recorded and a malformation rate and a rescue rate of each group were calculated. Morphological defects, a heart rate, cardiac morphology and other indicators were observed and evaluated by an SMZ745T inverted stereomicroscope.
Series [2] concerns zebrafish embryos.
Experimental: as §1
Series [3] deals with transcription factors (Nkx2.5, amhc, vmhc, hand2, has2, mef2a, mef2c, bmp2b, ephrinB2, ephB4) in zebrafish embryos. As to the kind of experiment: qRT-PCR expression of transcription factors during development of zebrafish embryos (Example 4). Format: in vivo. The following applies: 8 mM L-5-MTHF-Ca, 24 and 48 hpf. On the procedure: In order to explore an effect of folic acid on epigenetics during development of the zebrafish embryos, the zebrafish embryos at different developmental stages were collected for testing. […] A fluorescent dye SYBR Green was used in the qRT-PCR experiment. The qRT-PCR was conducted according to the instructions of an SYBR Green qPCR Master Mix kit and a detection was conducted on an ABI (HT 7900) PCR instrument. […] An expression of β-actin was used as an internal reference and relative expression levels of other genes were calculated by a ΔΔCt method.

Series [4] relates to zebrafish embryos. The following applies: 6 mM FA + 10 mM L-5-MTHF-Ca.
Experimental: Transgenic zebrafish (fli-1:EGFP) were from the Model Animal Research Center of Nanjing University. Adult zebrafish aged less than 1 were used for experiment and fed at a water pH value of 7±0.2, a temperature around 28° C. and a ratio of illumination to darkness of 14 h:10 h, and with Artemia salina eggs twice a day. Three zebrafish, one female, two males, were placed in a spawning box the night before and eggs were collected the next morning. Fish eggs were placed in an embryo culture medium (prepared with 0.2 g/L of sea salt) and cultured at 28° C. […] Dead embryos were cleaned up in time. Each experiment was conducted in triplicate. […] A phenotype of malformation was observed, the number of all abnormal zebrafish where the malformation was present was recorded and a malformation rate and a rescue rate of each group were calculated. Morphological defects, a heart rate, cardiac morphology and other indicators were observed and evaluated by an SMZ745T inverted stereomicroscope.
Series [5] concerns zebrafish embryos. This is another data set of the same source.
Experimental: Transgenic zebrafish (fli-1:EGFP) were from the Model Animal Research Center of Nanjing University. Adult zebrafish aged less than 1 year were used for experiment and fed at a water pH value of 7±0.2, a temperature around 28° C. and a ratio of illumination to darkness of 14 h:10 h, and with Artemia salina eggs twice a day. Three zebrafish, one female, two males, were placed in a spawning box the night before and eggs were collected the next morning. Fish eggs were placed in an embryo culture medium (prepared with 0.2 g/L of sea salt) and cultured at 28° C.
Zebrafish embryos were cultured in 24-well plates with 10 embryos per well at 2 hpf in a dosing manner, drug solutions of the above concentrations in the table were separately added, termination was conducted at 8 hpf, and the embryos were washed and transferred to an egg solution for continuous culture to 72 hpf. Dead embryos were cleaned up in time. Each experiment was conducted in triplicate.
A phenotype of malformation was observed, the number of all abnormal zebrafish where the malformation was present was recorded and a malformation rate and a rescue rate of each group were calculated. Morphological defects, a heart rate, cardiac morphology and other indicators were observed and evaluated by an SMZ745T inverted stereomicroscope.
Series [6] has as its system zebrafish embryos. The procedure:
Each experiment was conducted in triplicate. Zebrafish embryos were administrated at 2 h post fertilization (2 hpf) and termination was conducted at 72 hpf. The number of deaths in each group was recorded at 8, 24, 48 and 72 hpf. No food was fed during a dosing period, and the dead embryos were cleaned up in time.
The source holds these as a separate data set.

In series [7] the test system is zebrafish embryos. The following applies: in vivo. On the procedure:
A table was listed below for details.
5-Selected concentrations of methyltetrahydrofolate in the experiment were recorded in the table.

Series [8] concerns zebrafish embryos. As to conditions: 30 mM HCHO + 10 mM L-5-MTHF-Ca.
The subject of the next series is heart of fetal mice. As to the kind of experiment: Effects of folic acid and 5-methyltetrahydrofolate on heart development of fetal/neonatal mice, histology (Example 10). On the procedure: 75 7-week-old female C57BL/6J mice and 25 8-week-old male C57BL/6J mice were provided by Shanghai Lingchang Biotechnology Co., Ltd. with a certificate number of SCXK (Shanghai) 2018-0003. […] The female mice were randomly divided into 5 groups according to body weight: a solvent control group, a folic acid (151.66 μg/kg) group, a folic acid (303.32 μg/kg) group, a calcium 5-methyltetrahydrofolate (converted to folic acid, 151.66 μg/kg) group and a calcium 5-methyl tetrahydrofolate (converted to folic acid, 303.32 μg/kg) group. 1.1275 unit mass of the calcium 5-methyltetrahydrofolate equaled to 1 unit mass of the folic acid.
15 mice were in each group and numbered by a toe clipping method. The mice were intragastrically administrated once a day on the second day after grouping. One week after the pre-administration, male and female mice were caged at a ratio of […], a vaginal plug was observed every day from the next day, and a day when the vaginal plug was seen was recorded as day 0.5 of pregnancy. After 14 days of caging, the female mice stopped the administration, the male mice were removed, and the pregnant female mice were fed alone until litter.
After the detection, thoracic and abdominal cavities of the mice were dissected, cardiac morphology and beating were observed under a stereoscopic microscope (SMZ168, Motic, Xiamen, Fujian, China), and photographs and video recordings were taken (Motic Image Plus 3.0, Motic, Xiamen, Fujian, China). The mice were sacrificed and the hearts, the livers, the kidneys and the lungs were harvested. The hearts and the livers of the neonatal mice were selected from each group and fixed with 4% paraformaldehyde, the fixed hearts and livers were embedded in paraffin, the embedded hearts and livers were sliced and the slices were stained with H&E. A half of the other tissues were immersed in RNA later for fixation and the other half were directly immersed in liquid nitrogen and frozen for a subsequent experiment.
1-day-old neonatal mice were sacrificed, the hearts were taken and fixed with 4% paraformaldehyde, the fixed hearts were embedded in paraffin, the embedded hearts were sliced, the slices were stained with H&E and pictures were taken under a normal microscope.

The mark [9] stands for this setting: Group D: calcium 5-methyltetrahydrofolate (converted to folic acid, 151.66 μg/kg) intragastric.
Setting [10] is: Group E: calcium 5-methyltetrahydrofolate (converted to folic acid, 303.32 μg/kg) intragastric.

In the case of `N[C@@H](CCS)C(=O)O` [HCY, homocysteine], the “fetal rat heart histology” value was “led to red staining of muscle cytoplasm of the fetal rats” in the series on fetal rat heart (high-dose HCY 200 mg/kg/d intraperitoneal to pregnant rats); “led to widening of myocardial trabeculae in fetal rats and atria was filled with red blood cells” in the series on fetal rat heart (low-dose HCY 100 mg/kg/d intraperitoneal to pregnant rats).

Regarding “Calcium 5-Methyltetrahydrofolate [L-5-MTHF-Ca]”, in the series with zebrafish embryos [1] (10 mM L-5-MTHF-Ca in 20 mM NaHCO3, 2-72 hpf), the “survival rate of zebrafish” value is on record as “did not affect the survival rate of zebrafish”. Further, the embryo coverage entry with zebrafish embryos [1] (10 mM L-5-MTHF-Ca, 8 hpf) was “covered completely”. The “heart shape and lower intestinal network blood vessels” value with zebrafish embryos [1] (10 mM L-5-MTHF-Ca, 72 hpf) is “normal heart shape and normal development of lower intestinal network blood vessels”; in the series on zebrafish embryos [6] (10 mM, 72 hpf) it was “the heart in each group had a normal shape and the lower intestinal network blood vessels developed normally”; with zebrafish embryos [8] (72 hpf), “normal heart shape and normal development of lower intestinal network blood vessels”. The “pericardium edema and 10 s heart rate (48 hpf), body length (72 hpf), rescue” value with zebrafish embryos [2] (1.5 mM MTX + 10 mM L-5-MTHF-Ca) was “could rescue malformed phenotypes of the pericardium edema, the bradycardia and the shortened body length”; with zebrafish embryos [7] (zebrafish), “could rescue malformed phenotypes of the pericardium edema, the bradycardia and the shortened body length of the zebrafish to a certain extent”. The “rescue of embryonic development malformations” value is “could rescue embryonic development malformations induced by 1.5 mM MTX” in the series on zebrafish embryos [2] (1.5 mM MTX + 10 mM L-5-MTHF-Ca); “could rescue embryonic development malformations induced by 2 and 4 mM Pb(NO3)2” in the series on zebrafish embryos [7]. For the same compound, the “survival rate of embryos, rescue” value in the series on zebrafish embryos [2] (1.5 mM MTX + 10 mM L-5-MTHF-Ca) is “no significant difference from that of a control group”; with zebrafish embryos [4] it was “can rescue an effect of the 6 mM FA on a survival rate of the embryos”; with zebrafish embryos [7], “did not rescue an effect of the 2 and 4 mM Pb(NO3)2 on a survival rate of the embryos”; with zebrafish embryos [8], “can rescue an effect of the 30 mM HCHO on a survival rate of the embryos”. This compound yielded a Malformation rate with zebrafish embryos [2] (1.5 mM MTX after adding L-5-MTHF-Ca (10 mM)) of 10%. Moreover, in series [3], the “expressions of the various genes vs normal control” value is reported as “did not affect the expressions of the various genes”. The “10 s heart rate (48 hpf) and body length (72 hpf), rescue” value with zebrafish embryos [4] was “could rescue malformed phenotypes of the bradycardia and the shortened body length”. Also, the embryo development result in the series on zebrafish embryos [4] (8 hpf) and with zebrafish embryos [8] (8 hpf) was “delayed development of the zebrafish embryos” throughout. Also, the embryo phenotype result with zebrafish embryos [4] (24 hpf) was “alleviated the malformation”; with zebrafish embryos [4] (48 hpf) it was “led to pericardium edema, dyspigmentation, and intersegmental vascular hypoplasia of zebrafish”; in the series on zebrafish embryos [4] (72 hpf) it was “led to developmental disorders of lower intestinal network blood vessels of the zebrafish”; in the series on zebrafish embryos [7] (zebrafish) it was “did not lead to obvious embryonic development delay, malformation and death”. Also, the “pericardium edema, rescue” value in the series on zebrafish embryos [4] (48 hpf) is given as “could not rescue the pericardium edema”; with zebrafish embryos [5] ([…] EtOH + 10 mM L-5-MTHF-Ca, 48 hpf) it was “had no effect on relieving pericardium edema”. For the same compound, the “rate of pericardium edema, rescue” value in the series with zebrafish embryos [5] (0.6% EtOH + 10 mM L-5-MTHF-Ca, 48 hpf) is “could reduce a rate of pericardium edema”. Moreover, the “heart rate, rescue” value with zebrafish embryos [5] (0.9% and […] EtOH + 10 mM L-5-MTHF-Ca, 48 hpf) was “could relieve bradycardia”. Besides, the “survival rate, rescue” value with zebrafish embryos [5] ([…] EtOH + 10 mM L-5-MTHF-Ca) is recorded as “could rescue the survival rate”. Besides, in the series on zebrafish embryos [5] ([…] EtOH + 10 mM L-5-MTHF-Ca, 72 hpf), the “lower intestinal network blood vessels, rescue” value is “failed to ameliorate the defect”. Besides, the “body length, rescue” value in the series with zebrafish embryos [5] (high concentration ([…]) of EtOH + 10 mM L-5-MTHF-Ca) is on record as “relieve a shortened body length”. In addition, in the series with zebrafish embryos [6] (10 mM L-5-MTHF-Ca, dosed 2 hpf to 72 hpf), the embryo survival rate entry is “did not affect an embryo survival rate”. In addition, the “heart rate of zebrafish embryos” value in the series on zebrafish embryos [6] (10 mM, 48 hpf, vs control group) is “no difference in the heart rate”. In the series with zebrafish embryos [6] (10 mM, 72 hpf, vs control group), the “body length of zebrafish embryos” value is given as “no difference”. In the series with zebrafish embryos [7], the “10 s heart rate (48 hpf), body length and malformation (72 hpf), rescue” value was “could rescue malformed phenotypes of the bradycardia, the shortened body length and abnormally curved bodies”. Besides, in the series on zebrafish embryos [8], the “pericardium edema and heart rate (48 hpf), body length (72 hpf)” value is “had no effect on the pericardium edema, the heart rate and the body length of the zebrafish”. Besides, in the series with heart of fetal mice (5-methyltetrahydrofolate group), the “congenital heart disease in fetal mice” value was “no congenital heart disease is found”. The Development delay in the series with heart of fetal mice (setting [9]) and in the series with heart of fetal mice (setting [10]) was 0 throughout. Also, the Malformation cases in the series on heart of fetal mice (setting [9]) and in the series with heart of fetal mice (setting [10]) was 0 throughout. The Sparse myocardial trabeculae with heart of fetal mice (setting [9]) and in the series with heart of fetal mice (setting [10]) was 0 each time. Moreover, the Ventricular defects/septal defects with heart of fetal mice (setting [9]) and in the series with heart of fetal mice (setting [10]) was 0 each time. Besides, the “heart slices (H&E) of 1-day-old neonatal mice” value in the series with heart of fetal mice (low-dose and high-dose methyltetrahydrofolate groups) is on record as “had intact myocardium”.
